How the values were obtained:
relapsed/refractory HL = conditions: cited from earlier work
[1] = 9 patients evaluated at 6 weeks after infusion
[2] = 3 patients did not have data at 3 months
[3] = AE of special interest, classical HL patients
[4] = Grade 3 or higher AE, classical HL patients
[5] = not resolved by Day 28, classical HL patients

Molecule: cyclophosphamide and fludarabine
- CR (relapsed/refractory HL; [1]): 66.6%
- ORR (relapsed/refractory HL; [1]): 66.6%
- PD (relapsed/refractory HL; [1]): 33.3%
- disease progression: patients (relapsed/refractory HL; out of 9 patients evaluated at 6 weeks after infusion): 3
- CR: patients (relapsed/refractory HL; out of 9 patients evaluated at 6 weeks after infusion, cyclophosphamide 500 mg/m^2 and fludarabine 30 mg/m^2 daily for 3 days): 6

Molecule: Cn1c(CCCC(=O)O)nc2cc(N(CCCl)CCCl)ccc21 [Benda]
- Prolonged Grade 3/4 Anemia (at month 3): n [2]: 0
- Prolonged Grade 3/4 Neutropenia (at month 3): n [2]: 0
- Prolonged Grade 3/4 Thrombocytopenia (at month 3): n [2]: 0
- Cytokine Release Syndrome (all Grade 1): % [3]: (13) %
- Cytokine Release Syndrome (all Grade 1): n [3]: 1
- Anemia: n [4]: 0
- Dyspnea: n [4]: 0
- Headache: n [4]: 0
- Hypoalbuminemia: n [4]: 0
- Hyponatremia: n [4]: 0
- Leukopenia: % [4]: (38) %
- Leukopenia: n [4]: 3
- Lung Infection: n [4]: 0
- Lymphopenia: % [4]: (100) %
- Lymphopenia: n [4]: 8
- Neutropenia: % [4]: (25) %
- Neutropenia: n [4]: 2
- Pharyngitis: n [4]: 0
- Rash: n [4]: 0
- Thrombocytopenia: % [4]: (13) %
- Thrombocytopenia: n [4]: 1
- Grade 3/4 Anemia at day 28: n (classical HL patients): 0
- Rash (Any Grade): % (classical HL patients): (25) %
- Rash (Any Grade): n (classical HL patients, maculopapular skin rash): 2
- Grade 3/4 Neutropenia at day 28: n [5]: 0
- Grade 3/4 Thrombocytopenia at day 28: n [5]: 0

Reference: patent publication US12685773B2 (priority 2020, dated 2026)
